Results: patent US20240099951A1, “HAIR GROWTH STIMULANT” (ADJUVANT HOLDINGS CO., LTD., priority 2020, published 2024)

System: skin samples derived from C57BL/6N mouse dorsal body hair skin grafted onto Balb/c nu/nu mice
Test: Evaluation of hair growth activity: drug applied on skin samples transplanted in mice
Format: in vivo
Method: C57BL/6N mice (male) and Balb/c nu/nu mice (female) were purchased from Japan SLC, Inc. (Japan) and bred, and were thereafter made available for the following testing. Note that the testing and breeding of animals complied with pertinent laws, regulations, ordinances, and guidelines, and was performed with the approval of the Experimental Ethics Review Board of the Institute of Physical and Chemical Research. The following reagents were respectively prepared. • Comparative Example 1: 60% aqueous ethanol solution • Comparative Example 2: 5% minoxidil solution • Comparative Example 3: 3% minoxidil solution • Comparative Example 4: 1% minoxidil solution • Working Example 1: 3% phytosphingosine solution • Working Example 2: 1% phytosphingosine solution To collect dorsal body hair skin in the form of anagen stage VI skin 12 to 14 days following depilation, C57BL/6N mice of age 7 to 8 weeks were depilated at locations where dorsal body hair skin was intended to be collected, and were bred for 12 to 14 days. The depilated C57BL/6N mice were thereafter euthanized by cervical dislocation, following which a suitable amount of dorsal body hair skin was collected from the locations at which dorsal body hair skin was intended to be collected. The collected skin was immersed in DMEM culture medium (hereinafter “DMEM 10”) which contained 10 mM HEPES, 10% fetal bovine serum, and 1% penicillin/streptomycin solution. The collected dorsal body hair skin was grasped with bent-nose curved tweezers and was treated by immersion for 10 seconds in a sterilizing solution. Sterilization treatment was performed by carrying out treatment with 7% povidone iodine solution two times, treatment with PBS (−) three times, and treatment with DMEM 10 two times, in this order, with fresh solutions respectively being used each time. Following sterilization treatment, these were immersed in clean DMEM 10. Following sterilization treatment, the dorsal body hair skin was cut into pieces and formed into blocks. The transparent connective tissue which adhered to the cutaneous muscle layer of the skin was excised therefrom using curved scissors, and hair groups were cut into rectangular strips in parallel fashion with respect to the direction of the wave of the hair. At this time, these were cut into blocks such that there were 6 rows of hair follicles along the long axis, adjustment having been carried out so that there were 5 rows of hair follicles along the short axis. The skin samples derived from dorsal body hair skin that were prepared in accordance with the foregoing were grafted onto Balb/c nu/nu mice of age 4 to 6 weeks. More specifically, mice were anesthetized in the usual way using isoflurane gas. The dorsal area of the mice was then disinfected using 7% povidone iodine solution, following which the mice were made to assume a naturally recumbent posture. In addition, a Mani ophthalmic knife (Mani, Inc.; Japan) was used to pierce the skin at the dorsal area of the mice, the grafts which were formed extending from the epidermal layer of the skin to the subdermal layer. The skin samples derived from dorsal body hair skin were inserted into the grafts formed thereat in such fashion as to cause the hair groups to be directed toward the body surface side of the grafts. Skin sample transplanted depth was adjusted so as to cause the top portion of the hair group to be in a state such that it was exposed at the top portion of the graft. To protect the grafts, Nurseban (registered trademark) (Sunplanet Co., Ltd.; Japan) and surgical tape (3M Japan Limited; Japan) were then used as protective tape to cover the grafts at which the skin samples derived from dorsal body hair skin had been transplanted. The protective tape was removed 5 to 7 days following transplantation, and survival of the transplanted skin samples derived from dorsal body hair skin was determined by visual inspection or digital microscopy (Keyence Corporation; Japan), after which follow-up observation was carried out. […]

[1] = 1% phytosphingosine solution (Working Example 2), second hair cycle
[2] = 1% phytosphingosine solution (Working Example 2), third hair cycle
[3] = 1% phytosphingosine solution, second hair cycle vs first hair cycle
[4] = 1% phytosphingosine solution, third hair cycle vs first hair cycle
[5] = 3% phytosphingosine solution (Working Example 1), second hair cycle
[6] = 3% phytosphingosine solution (Working Example 1), third hair cycle
[7] = 3% phytosphingosine solution, second hair cycle vs first hair cycle
[8] = 3% phytosphingosine solution, third hair cycle vs first hair cycle
[9] = solution containing 1% phytosphingosine
[10] = solution containing 3% phytosphingosine

Q: For CCCCCCCCCCCCCC[C@@H](O)[C@@H](O)[C@@H](N)CO [phytosphingosine], which “Hair shaft elongation rate” value [1] is on record?
A: The value was 0.48 ± 0.03 mm/day.

Q: And the “Maximum hair shaft length” value [1]?
A: Its value is 5.1 ± 0.2 mm.

Q: And the “Hair shaft elongation rate” value [2]?
A: The value was 0.45 ± 0.02 mm/day.

Q: And the “Maximum hair shaft length” value [2]?
A: The value was 4.7 ± 0.1 mm.

Q: What about the “Hair shaft elongation rate, percent change relative to reference data” value [3] of the same compound?
A: Its value is 129.73%.

Q: What about the “Maximum hair shaft length, percent change relative to reference data” value [3] of the same compound?
A: Its value is 113.33%.

Q: What about the “Hair shaft elongation rate, percent change relative to reference data” value [4] of the same compound?
A: The value was 121.62%.

Q: And the “Maximum hair shaft length, percent change relative to reference data” value [4]?
A: The value was 104.44%.

Q: What about the “Hair shaft elongation rate” value [5] of the same compound?
A: Its value is 0.46 ± 0.03 mm/day.

Q: And the “Maximum hair shaft length” value [5]?
A: The value was 5.4 ± 0.1 mm.

Q: What about the “Hair shaft elongation rate” value [6] of the same compound?
A: Its value is 0.43 ± 0.05 mm/day.

Q: And the “Maximum hair shaft length” value [6]?
A: The value was 5.1 ± 0.3 mm.

Q: And the “Hair shaft elongation rate, percent change relative to reference data” value [7]?
A: Its value is 109.52%.

Q: What about the “Maximum hair shaft length, percent change relative to reference data” value [7] of the same compound?
A: Its value is 122.73%.

Q: And the “Hair shaft elongation rate, percent change relative to reference data” value [8]?
A: The value was 102.38%.

Q: And the “Maximum hair shaft length, percent change relative to reference data” value [8]?
A: The value was 115.91%.

Q: And the hair growth activity [9]?
A: Its hair growth activity is “exhibit hair growth activity”.

Q: And the “hair shaft elongation rate as compared with reference data” value [9]?
A: The value was “significant improvement”.

Q: And the “maximum hair shaft length as compared with reference data” value (solution containing 1% phytosphingosine, third hair cycle)?
A: The value was “no significant difference”.

Q: What about the hair growth activity [10] of the same compound?
A: Its hair growth activity is “exhibit hair growth activity”.

Q: What about the “hair shaft elongation rate as compared with reference data” value [10] of the same compound?
A: Its value is “no significant difference”.

Q: What about the “maximum hair shaft length as compared with reference data” value [10] of the same compound?
A: The value was “significant improvement”.
